In patent publication US10526311B2 (ASTEX THERAPEUTICS LIMITED, priority 2015, dated 2020):
pIC50: −log10 of the molar value. Like-named read-outs stand apart in the source and are kept apart here.

Key:
SN40R2 = experiment: Protocol B: SN40R2 CellTiter-Glo cell viability; details: 72 h; for IC50: read-out: SN40R2 IC50 (μM) (Protocol B)
Protocol: Protocol B: SJSA-1 and SN40R2 Assays
The CellTiter-Glo® Luminescent Cell Viability Assay is a homogeneous method to determine the number of viable cells in culture based on quantitation of the ATP present, which signals the presence of metabolically active cells. […] 100 μl of CTG reagent (Promega #G7573) was added to all wells and luminescence was measured on the topcount. The EC50 values were determined from a sigmoidal 4 parameter curve fit using XLfit in conjunction with Activity Base (IDBS; Guildford, Surrey, UK).

[1] = tested on: SJSA-1 (MDM2 amplified, p53 wild-type osteosarcoma); experiment: Protocol A: SJSA-1 growth inhibition (SRB); details: Homo sapiens, SJSA-1, 72 h; for pIC50: read-out: SJSA-1 IC50 (Protocol A), SJSA-1 cells, SRB, 72 hrs
Protocol: Protocol A: SJSA-1 and SN40R2 Assays
(§1) Following incubation with the SRB dye at room temperature for 30 min, the plates were washed with 1% acetic acid and left to dry. […] The GI50 was calculated by non-linear regression analysis of the data using Prism v4.0 statistical software.

[2] = tested on: SN40R2 (MDM2 amplified, p53 mutated osteosarcoma); experiment: Protocol A: SN40R2 growth inhibition (SRB); details: 72 h; for inhibition at 30 µM: read-out: SN40R2 (Protocol A) % at concentration
Protocol: Protocol A: SJSA-1 and SN40R2 Assays
as §1

[3] = biological target: MDM2-p53 interaction (in vitro translated MDM2, biotinylated IP3 peptide) (Homo sapiens, UniProt Q00987); experiment: MDM2-p53 interaction 96-well plate binding assay (ELISA)
Chain of MDM2-p53 interaction (in vitro translated MDM2, biotinylated IP3 peptide) (Q00987 whole entry): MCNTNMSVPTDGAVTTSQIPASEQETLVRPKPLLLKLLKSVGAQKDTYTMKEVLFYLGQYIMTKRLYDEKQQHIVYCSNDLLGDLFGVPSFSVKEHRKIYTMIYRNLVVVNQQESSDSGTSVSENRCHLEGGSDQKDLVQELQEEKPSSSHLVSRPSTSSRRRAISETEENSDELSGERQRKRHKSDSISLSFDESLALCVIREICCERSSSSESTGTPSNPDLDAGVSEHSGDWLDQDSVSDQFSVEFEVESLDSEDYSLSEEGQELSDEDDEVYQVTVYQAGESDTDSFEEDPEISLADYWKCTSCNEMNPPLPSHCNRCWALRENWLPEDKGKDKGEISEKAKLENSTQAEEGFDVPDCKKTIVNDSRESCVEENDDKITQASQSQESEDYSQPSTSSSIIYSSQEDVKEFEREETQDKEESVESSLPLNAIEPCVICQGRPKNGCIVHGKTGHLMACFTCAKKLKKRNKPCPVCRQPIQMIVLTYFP
Protocol: The ELISA assay was performed in streptavidin coated plates which were preincubated with 200 μl per well of 1 μg ml^−1 biotinylated IP3 peptide. The plates were ready to use for MDM2 binding after washing the plate with PBS.
The unbound secondary antibody was removed by washing three times with TBS-Tween. The bound HRP activity was measured by enhanced chemiluminesence (ECL™, Amersham Biosciences) using the oxidation of the diacylhydrazide substrate, luminol, to generate a quantifiable light signal. The percentage of MDM2 inhibition at a given concentration is calculated as the [1−(RLU detected in the compound treated sample−RLU negative DMSO control)÷(RLU of DMSO positive and negative controls)]×100 or as the (RLU detected in the compound treated sample÷RLU of DMSO controls)×100. The IC50 was calculated using a plot of % MDM2 inhibition vs concentration and is the average of two or three independent experiments.

SJSA-1 = experiment: Protocol B: SJSA-1 CellTiter-Glo cell viability
[4] = read-out: SN40R2 IC50 (Protocol B)
[5] = Homo sapiens, SJSA-1, 72 h, read-out: SJSA1 IC50 (Protocol B), SJSA-1 cells, CellTiter-Glo, 72 hrs
[6] = read-out: SN40R2 IC50 (Protocol B), SN40R2 cells, CellTiter-Glo, 72 hrs
[7] = read-out: SJSA1 IC50 (Protocol B), SJSA-1 cells, CellTiter-Glo, 72 hrs

CC(=O)N1CCC(C(C)(O)c2cc(F)c3c(c2)C(=O)N(Cc2ccc(Cl)cn2)[C@@]3(OCC2(C#N)CC2)c2ccc(Cl)cc2)CC1 (single isomer, unassigned) [Example 301]
pIC50 (SN40R2; [4]): 4.92 | pIC50 [1]: 7.15 | pIC50 ([2]; read-out: SN40R2 IC50 (Protocol A)): 4.55 | inhibition at 0.001 µM ([3]; @ 0.0010 μM, read-out: MDM2 % @ concentration): 75% | pIC50 (SJSA-1; [5]): 7.44

CO[C@]1(c2ccc(Cl)cc2)c2c(F)cc(C(C)(O)c3cn(C)c(C)n3)cc2C(=O)N1Cc1ccc(Cl)cn1 (single isomer, unassigned) [Example 162]
pIC50 (SN40R2; [6]): 4.89 | pIC50 (SJSA-1; [7]): 6.66

CO[C@]1(c2ccc(Cl)cc2)c2c(F)cc(C(C)(O)C3CN(C)C3)cc2C(=O)N1Cc1ccc(Cl)cn1 (single isomer, unassigned) [Example 307]
pIC50 (SN40R2; [6]): 4.96 | pIC50 (SJSA-1; [5]): 5.72

CCC(O)(c1cc(F)c2c(c1)C(=O)N(Cc1ncc(Cl)cn1)[C@@]2(O[C@H]1CCOC1)c1ccc(Cl)cc1)C1(F)CCNCC1 (single isomer, unassigned) [Example 541]
IC50 (SN40R2): 10 µM | IC50 ([1]; read-out: SJSA-1 IC50 (μM) (Protocol A), SJSA-1, Protocol A (SRB), 72 hrs): 0.19 µM | IC50 ([2]; read-out: SN40R2 IC50 (μM) (Protocol A)): 13 µM

CO[C@]1(c2ccc(Cl)cc2)c2c(F)cc(C(C)(O)C3CCN(C(=O)CN(C)C)CC3)cc2C(=O)N1Cc1ccc(Cl)cn1 (stereo partly drawn) [Example 299, (3R)-3-(4-chlorophenyl)-2-[(5-chloropyridin-2-yl)methyl]-6-(1-{1-[2-(dimethylamino)acetyl]piperidin-4-yl}-1-hydroxyethyl)-4-fluoro-3-methoxy-2,3-dihydro-1H-isoindol-1-one]
pIC50 (SN40R2; [6]): 5.10 | pIC50 (SJSA-1; [5]): 5.70

CC(O)(c1cc(F)c2c(c1)C(=O)N(Cc1ccc(Cl)cn1)[C@@]2(OCC1(C#N)CC1)c1ccc(Cl)cc1)C1CCN(CCO)CC1 (single isomer, unassigned) [Example 420]
pIC50 (SN40R2; [4]): 5.36 | pIC50 (SJSA-1; [5]): 6.06

CO[C@]1(c2ccc(Cl)cc2)c2c(F)cc(C(C)(O)C3CCN(C)CC3)cc2C(=O)N1Cc1ccc(Cl)cn1 (single isomer, unassigned) [Example 304]
pIC50 (SN40R2; [6]): 5.05

[2H]C([2H])(O)C1(C([2H])([2H])O[C@]2(c3ccc(Cl)cc3)c3c(F)cc(C(C)(C)O)cc3C(=O)N2Cc2ccc(C#N)cn2)CC1 [Example 5, 6-{[(1R)-1-(4-Chlorophenyl)-7-fluoro-1-({1-[hydroxy(^2H2)methyl]cyclopropyl}(^2H2)methoxy)-5-(2-hydroxypropan-2-yl)-3-oxo-2,3-dihydro-1H-isoindol-2-yl]methyl}pyridine-3-carbonitrile]
pIC50 [1]: 6.70 | inhibition at 30 µM [2]: 20% | pIC50 [3]: 8.42 | pIC50 (SJSA-1; [5]): 6.55

CO[C@]1(c2ccc(Cl)cc2)c2c(F)cc(C(C)(O)c3cnn(C4CN(C(=O)OC(C)(C)C)C4)c3)cc2C(=O)N1Cc1ccc(Cl)cn1 (single isomer, unassigned) [Example 458]
IC50 (SN40R2): 12 µM

CC(C)(O)c1cc(F)c2c(c1)C(=O)N(Cc1ccc(C#N)cn1)[C@@]2(OCC1(CO)CC1)c1ccc(Cl)cc1 [Example 36, 6-{[(1R)-1-(4-chlorophenyl)-7-fluoro-1-{[1-(hydroxymethyl)cyclopropyl]methoxy}-5-(2-hydroxypropan-2-yl)-3-oxo-2,3-dihydro-1H-isoindol-2-yl]methyl}pyridine-3-carbonitrile]
pIC50 [1]: 6.68 | inhibition at 30 µM [2]: 13% | pIC50 [3]: 8.29 | pIC50 (SJSA-1; [5]): 6.74

CO[C@]1(c2ccc(Cl)cc2)c2c(F)cc(C(C)(O)c3ncc[nH]3)cc2C(=O)N1Cc1ccc(Cl)cn1 (stereo partly drawn) [Example 163, (3R)-3-(4-chlorophenyl)-2-[(5-chloropyridin-2-yl)methyl]-4-fluoro-6-[1-hydroxy-1-(1H-imidazol-2-yl)ethyl]-3-methoxy-2,3-dihydro-1H-isoindol-1-one]
pIC50 (SN40R2; [6]): 4.89 | pIC50 (SJSA-1; [5]): 5.51

CO[C@]1(c2ccc(Cl)cc2)c2c(F)cc(C(C)(O)c3nccs3)cc2C(=O)N1Cc1ccc(Cl)cn1 (stereo partly drawn) [Example 165, (3R)-3-(4-Chlorophenyl)-2-[(5-chloropyridin-2-yl)methyl]-4-fluoro-6-[1-hydroxy-1-(1,3-thiazol-2-yl)ethyl]-3-methoxy-2,3-dihydro-1H-isoindol-1-one]
pIC50 (SN40R2; [6]): 4.89 | pIC50 (SJSA-1; [7]): 5.85

CO[C@]1(c2ccc(Cl)cc2)c2c(F)cc(C(C)(O)C3CCN(c4ncccn4)CC3)cc2C(=O)N1Cc1ccc(Cl)cn1 (stereo partly drawn) [Example 286, (3R)-3-(4-chlorophenyl)-2-[(5-chloropyridin-2-yl)methyl]-4-fluoro-6-{1-hydroxy-1-[1-(pyrimidin-2-yl)piperidin-4-yl]ethyl}-3-methoxy-2,3-dihydro-1H-isoindol-1-one]
pIC50 (SN40R2; [6]): 4.92
